According to patent US20250326769A1, “HETEROAROMATIC MACROCYCLIC ETHER CHEMOTHERAPEUTIC AGENTS” (Nuvalent, Inc., priority 2022, published 2025):
Like-named read-outs stand apart in the source and are kept apart here.

What was measured:
[1] = molecular target: ROS1 (Homo sapiens (Human), UniProt P08922); assay: Biochemical kinase assay, ROS1-wt; conditions: apparent inhibitory constant, kinase domain, Morrison equation; read-out: ROS1-wt Ki^app
Description: (§1) First, 250 nL of compound dissolved in DMSO (100-fold of the desired concentration) was dispensed into a 384-well plate. A 12.5 μL substrate solution containing ATP (2 mM) and fluorogenic phosphorylation substrate AQT0101 ([…] for ALK and ROS, AssayQuant) or AQT0104 (26 μM for TRKB, AssayQuant) in buffer (50 mM HEPES pH 7.5, […], 0.5 mM EGTA, 10 mM MgCl2) was added and mixed thoroughly. Then, a 12.5 μL kinase solution containing ALK (1.5 nM, Carna, 08-518), ALK I1171N/D1203N (4 nM, SignalChem, custom-made), ROS1 (0.6 nM, Carma, 08-163), ROS1-G2032R (0.5 nM, SignalChem, R14-121BG), or TRKB-wt (1.5 nM, SignalChem, N17-11G) kinase domains in buffer ([…] pH 7.5, 0.01% Brij-[…], 0.4 mg/mL BSA, 0.5 mM EGTA, and 10 mM MgCl2) was added and mixed thoroughly. The plate was sealed and read by SpectraMax Paradigm at λ=485 nm every 2 minutes for 120 minutes at 30° C. Initial rates of reaction (v) were calculated from the change in fluorescence intensity over time during the initial, linear portion of the reaction. Finally, apparent inhibitory constants (Ki^app) were determined from regression of v and I (inhibitor concentration) to Morrison Equation (E=enzyme concentration): […]
(§2) Compound potency can be interpreted by binning Ki^app values against the targets: bin A for high potency, Ki^app<50 nM; bin B for medium potency, 50 nM≤Ki^app<500 nM; and bin C for low potency, Ki^app≥500 nM. […] “nd” means not determined.

[2] = molecular target: ROS1-G2032R (Homo sapiens (Human), UniProt P08922, G2032R); assay: Biochemical kinase assay, ROS1-G2032R; conditions: apparent inhibitory constant, kinase domain, Morrison equation; read-out: ROS1-G2032R Ki^app
Sequence of ROS1-G2032R (P08922 1945-2222 G2032R): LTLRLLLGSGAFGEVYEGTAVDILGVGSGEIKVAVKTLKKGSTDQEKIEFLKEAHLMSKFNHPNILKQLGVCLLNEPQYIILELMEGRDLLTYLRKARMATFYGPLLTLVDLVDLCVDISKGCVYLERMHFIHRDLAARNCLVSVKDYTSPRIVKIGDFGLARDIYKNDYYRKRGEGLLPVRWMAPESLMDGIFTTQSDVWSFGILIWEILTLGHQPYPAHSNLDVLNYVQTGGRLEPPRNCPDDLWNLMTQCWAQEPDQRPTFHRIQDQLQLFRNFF
Description: as §1, §2

[3] = molecular target: ALK I1171N/D1203N (Homo sapiens (Human), UniProt Q9UM73, D1203N/I1171N); assay: Biochemical kinase assay, ALK I1171N/D1203N; conditions: apparent inhibitory constant, kinase domain, Morrison equation; read-out: ALK-I1171N-D1203N Ki^app
Sequence of ALK I1171N/D1203N (Q9UM73 1116-1392 I1171N/D1203N): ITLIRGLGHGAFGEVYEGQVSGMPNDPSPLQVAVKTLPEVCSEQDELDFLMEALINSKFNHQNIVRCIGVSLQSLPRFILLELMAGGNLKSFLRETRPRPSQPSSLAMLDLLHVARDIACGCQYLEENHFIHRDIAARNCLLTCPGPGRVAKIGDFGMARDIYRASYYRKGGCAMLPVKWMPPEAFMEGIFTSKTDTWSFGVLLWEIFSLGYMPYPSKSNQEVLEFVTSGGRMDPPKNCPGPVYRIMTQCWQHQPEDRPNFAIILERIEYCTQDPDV
How it was run: (§3)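 Kinase domains (in enzyme solution: ALK I1171N/D1203N 4 nM, ROS1 0.6 nM, ROS1-G2032R 0.5 nM, TRKB 1.5 nM) were mixed with substrate solution holding 2 mM ATP and 26 μM AQT0101 (ALK, ROS1) or AQT0104 (TRKB). Initial rates from 120-min fluorescence kinetics at 30 °C were fitted to the Morrison equation (Ki^app).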

[4] = molecular target: TRKB-wt (Homo sapiens (Human), UniProt Q16620); assay: Biochemical kinase assay, TRKB-wt; conditions: apparent inhibitory constant, kinase domain, Morrison equation; read-out: TRKB-wt Ki^app
Sequence of TRKB-wt (Q16620 538-807): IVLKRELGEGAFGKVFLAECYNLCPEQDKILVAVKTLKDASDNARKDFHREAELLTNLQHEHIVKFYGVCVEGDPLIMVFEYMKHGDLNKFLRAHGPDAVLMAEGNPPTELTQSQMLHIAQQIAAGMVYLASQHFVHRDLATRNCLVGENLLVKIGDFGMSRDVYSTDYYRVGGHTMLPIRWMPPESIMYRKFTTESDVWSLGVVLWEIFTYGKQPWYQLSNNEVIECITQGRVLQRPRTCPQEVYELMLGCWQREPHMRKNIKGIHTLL
How it was run: as §3

[5] = molecular target: Ba/F3 EML4-ALK v1 I1171N (Homo sapiens (Human), UniProt Q9HC35+Q9UM73, I1171N); assay: Ba/F3 cell proliferation assay, EML4-ALK v1 I1171N; assay type: cell-based; conditions: for IC50: Ba/F3 stable cells, 72 hours, CellTiter-Glo; for ETV6-TRKB / EML4-ALK v1 I1171N: TRKB selectivity, ratio of Ba/F3 IC50 values
Sequence of Ba/F3 EML4-ALK v1 I1171N (Q9UM73 other isoform, or with tags, fused parts or gaps I1171N): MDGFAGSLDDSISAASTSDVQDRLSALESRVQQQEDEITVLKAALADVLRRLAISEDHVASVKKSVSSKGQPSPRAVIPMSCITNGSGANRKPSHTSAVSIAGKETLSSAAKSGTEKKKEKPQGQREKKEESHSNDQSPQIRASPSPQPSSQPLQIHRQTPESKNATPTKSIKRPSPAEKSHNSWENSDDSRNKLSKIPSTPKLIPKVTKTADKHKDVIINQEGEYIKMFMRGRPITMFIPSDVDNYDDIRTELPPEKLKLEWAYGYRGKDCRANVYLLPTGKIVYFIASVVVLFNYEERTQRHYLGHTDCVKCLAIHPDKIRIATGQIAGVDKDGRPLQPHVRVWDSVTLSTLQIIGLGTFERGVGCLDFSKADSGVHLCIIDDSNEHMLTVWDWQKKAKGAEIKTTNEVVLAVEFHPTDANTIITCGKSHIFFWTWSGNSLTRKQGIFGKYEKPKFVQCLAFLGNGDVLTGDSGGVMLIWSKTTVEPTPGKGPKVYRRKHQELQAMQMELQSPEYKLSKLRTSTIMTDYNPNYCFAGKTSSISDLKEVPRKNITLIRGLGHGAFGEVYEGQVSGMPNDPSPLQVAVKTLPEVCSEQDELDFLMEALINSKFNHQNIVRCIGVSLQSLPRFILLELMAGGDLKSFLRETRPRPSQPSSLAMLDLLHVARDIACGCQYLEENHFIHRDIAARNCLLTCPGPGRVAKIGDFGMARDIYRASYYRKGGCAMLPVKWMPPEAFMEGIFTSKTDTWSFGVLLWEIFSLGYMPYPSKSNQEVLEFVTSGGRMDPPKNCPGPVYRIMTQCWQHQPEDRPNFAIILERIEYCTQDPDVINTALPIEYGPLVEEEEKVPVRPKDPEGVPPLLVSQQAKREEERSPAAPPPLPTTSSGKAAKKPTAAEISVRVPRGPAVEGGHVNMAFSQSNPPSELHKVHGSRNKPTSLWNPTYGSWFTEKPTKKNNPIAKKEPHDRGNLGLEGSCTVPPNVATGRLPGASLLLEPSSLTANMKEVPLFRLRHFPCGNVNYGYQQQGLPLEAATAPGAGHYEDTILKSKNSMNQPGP
How it was run: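 Ba/F3 cells stably transformed with retroviral EML4-ALK v1 I1171N, selected by IL-3 withdrawal and puromycin, grown IL-3-free. Compounds added as 3-fold dilution series, 72 h incubation; viability by CellTiter-Glo luminescence. IC50 from percent inhibition by four-parameter logistic fit, binned A/B/C.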

[6] = molecular target: Ba/F3 EML4-ALK v1 I1171N/D1203N (Homo sapiens (Human), UniProt Q9HC35+Q9UM73, D1203N/I1171N); assay: Ba/F3 cell proliferation assay, EML4-ALK v1 I1171N/D1203N; assay type: cell-based; conditions: for IC50: Ba/F3 stable cells, 72 hours, CellTiter-Glo; for ETV6-TRKB / EML4-ALK v1 I1171N/D1203N: TRKB selectivity, ratio of Ba/F3 IC50 values
Sequence of Ba/F3 EML4-ALK v1 I1171N/D1203N (Q9UM73 other isoform, or with tags, fused parts or gaps I1171N/D1203N): as the sequence (Q9UM73 other isoform, or with tags, fused parts or gaps I1171N) above, with D642N counted along it
How it was run: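 Ba/F3 cells made IL-3-independent by retroviral EML4-ALK v1 I1171N/D1203N and selected with puromycin, then treated with 3-fold compound dilutions for 72 h. Viability by CellTiter-Glo luminescence; IC50 from four-parameter logistic fit.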

[7] = molecular target: Ba/F3 ETV6-TRKB (Homo sapiens, UniProt Q16620); assay: Ba/F3 cell proliferation assay, ETV6-TRKB; assay type: cell-based
Sequence of Ba/F3 ETV6-TRKB (Q16620 32-822 limits assumed, change not shown): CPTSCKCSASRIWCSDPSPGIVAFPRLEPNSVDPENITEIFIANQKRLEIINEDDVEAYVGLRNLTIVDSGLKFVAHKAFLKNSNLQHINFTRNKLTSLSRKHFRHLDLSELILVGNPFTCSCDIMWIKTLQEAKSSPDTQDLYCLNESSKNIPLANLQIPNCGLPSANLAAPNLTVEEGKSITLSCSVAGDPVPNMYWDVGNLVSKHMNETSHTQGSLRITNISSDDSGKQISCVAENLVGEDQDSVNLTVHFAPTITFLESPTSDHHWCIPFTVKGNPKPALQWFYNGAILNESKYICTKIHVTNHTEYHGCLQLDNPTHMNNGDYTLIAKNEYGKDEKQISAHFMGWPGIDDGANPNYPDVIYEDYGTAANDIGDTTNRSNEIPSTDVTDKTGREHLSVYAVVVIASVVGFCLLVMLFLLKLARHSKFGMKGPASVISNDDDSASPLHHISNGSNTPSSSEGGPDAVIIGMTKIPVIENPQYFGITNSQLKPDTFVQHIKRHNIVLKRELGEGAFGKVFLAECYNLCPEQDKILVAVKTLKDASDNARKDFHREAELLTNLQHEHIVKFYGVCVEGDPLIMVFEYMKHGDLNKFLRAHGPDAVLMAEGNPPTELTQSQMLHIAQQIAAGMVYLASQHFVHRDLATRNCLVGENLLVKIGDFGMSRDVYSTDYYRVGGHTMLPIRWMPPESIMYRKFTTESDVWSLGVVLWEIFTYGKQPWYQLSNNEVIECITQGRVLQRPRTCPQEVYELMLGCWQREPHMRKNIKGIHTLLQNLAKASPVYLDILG
How it was run: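 Ba/F3 cells retrovirally transduced with ETV6-TRKB and selected for IL-3-independent growth with puromycin were treated with 3-fold compound dilutions for 72 h. Viability read by CellTiter-Glo luminescence; IC50 from percent inhibition by four-parameter logistic fit.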

[8] = Ba/F3 stable cells, 72 hours, CellTiter-Glo; read-out: ETV6-TRKB IC50

Sequence of ROS1 (P08922 1945-2222): as the sequence (P08922 1945-2222 G2032R) above, with R88G counted along it

`C[C@H]1Oc2cc(cnc2N)-c2c(c(C(=O)N(C)C)nn2CC2CC2)Cc2cn(C)nc2-c2ccc(F)cc21` [Example 8, N,N-dimethyl-(R)-22-amino-3-(cyclopropylmethyl)-16-fluoro-10-methyl-19-methyl-20-oxa-3,4,10,11,23-pentaazapentacyclo[19.3.1.0^2,^6.0^8,^12.0^13,^18]pentacosa-1(24),2(6),4,8,11,13,15, 17,21(25),22-decaene-5-carboxamide] was tested, and the Ki [1] was less than 50 nM, the Ki [2] was less than 50 nM and the Ki [3] was less than 50 nM. For the same molecule, the Ki [4] was 50 to 500 nM, the IC50 [5] was 0.1 to 50 nM and the “ETV6-TRKB / EML4-ALK v1 I1171N” value [5] was “A (bin A for very high selectivity, ratio≥30-fold)”. For the same molecule, the IC50 [6] was 0.1 to 50 nM, the “ETV6-TRKB / EML4-ALK v1 I1171N/D1203N” value [6] was “A (bin A for very high selectivity, ratio≥30-fold)” and the IC50 [7, 8] was greater than 500 nM.

`C[C@H]1Oc2cc(cnc2N)-c2c(C#N)nn(C(=O)N(C)C)c2Cc2cccnc2-c2ccc(F)cc21` [Example 27, N,N-dimethyl-(R)-23-amino-3-cyano-17-fluoro-20-methyl-21-oxa-4,5,12,24-tetraazapentacyclo[20.3.1.0^2,^6.0^8,^13.0^14,^19]hexacosa-1(25),2(6),3,8(13),9,11,14,16,18,22(26),23-undecaene-5-carboxamide] was tested, and the Ki [1] was less than 50 nM, the Ki [2] was less than 50 nM and the Ki [3] was less than 50 nM. For the same molecule, the Ki [4] was less than 50 nM, the IC50 [5] was 0.1 to 50 nM and the “ETV6-TRKB / EML4-ALK v1 I1171N” value [5] was “A (bin A for very high selectivity, ratio≥30-fold)”. For the same molecule, the IC50 [6] was 0.1 to 50 nM, the “ETV6-TRKB / EML4-ALK v1 I1171N/D1203N” value [6] was “A (bin A for very high selectivity, ratio≥30-fold)” and the IC50 ([7]; read-out: ETV6-TRKB IC50; Ba/F3 stable cells, 72 hours, CellTiter-Glo) was 50 to 500 nM.

Molecule `CCn1nc(C(=O)N(C)C)c2c1-c1cnc(N)c(c1)O[C@H](C)c1cc(F)ccc1-c1nn(C)cc1C2` [Example 7, N,N-dimethyl-(R)-22-amino-3-ethyl-16-fluoro-10-methyl-19-methyl-20-oxa-3,4,10,11,23-pentaazapentacyclo[19.3.1.0^2,6.0^8,12.0^13,18]pentacosa-1(24),2(6),4,8,11,13,15,17.21(25),22-decaene-5-carboxamide] has a Ki [1] of less than 50 nM, a Ki [2] of less than 50 nM and a Ki [3] of less than 50 nM. For the same molecule, the Ki [4] was less than 50 nM, the IC50 [5] was 0.1 to 50 nM and the “ETV6-TRKB / EML4-ALK v1 I1171N” value [5] was “B (bin B for high selectivity, ratio≥10-fold but<30)”. The IC50 [6] was 0.1 to 50 nM, the “ETV6-TRKB / EML4-ALK v1 I1171N/D1203N” value [6] was “C (bin C for moderate selectivity, ratio≥1 but<10)” and the IC50 [7, 8] was 50 to 500 nM.
